This note sets out measurements from ChEMBL document CHEMBL1136755, “Mapping property distributions of molecular surfaces: algorithm and evaluation of a novel 3D quantitative structure-activity relationship technique” (J Med Chem, 2003).

SMILES strings stand for the structures.

In one test the target is T1, Muscarinic acetylcholine receptor M2 (Sus scrofa, UniProt P06199).
T1 sequence (P06199 whole entry): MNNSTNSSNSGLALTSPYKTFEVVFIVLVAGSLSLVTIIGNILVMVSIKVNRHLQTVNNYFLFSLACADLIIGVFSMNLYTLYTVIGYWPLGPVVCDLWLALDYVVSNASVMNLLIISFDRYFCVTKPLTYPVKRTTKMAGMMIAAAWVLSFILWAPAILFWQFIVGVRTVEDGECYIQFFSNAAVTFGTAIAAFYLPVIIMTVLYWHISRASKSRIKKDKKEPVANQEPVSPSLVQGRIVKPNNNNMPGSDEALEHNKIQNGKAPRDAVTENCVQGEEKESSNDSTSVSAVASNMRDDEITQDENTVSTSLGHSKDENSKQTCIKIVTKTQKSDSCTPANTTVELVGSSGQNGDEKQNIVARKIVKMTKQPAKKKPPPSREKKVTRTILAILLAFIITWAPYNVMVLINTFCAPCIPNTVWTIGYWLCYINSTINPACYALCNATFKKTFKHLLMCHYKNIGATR
The test is described as follows: Ability to dissociate radioligand [3H]NMS from muscarinic acetylcholine receptor M2 of porcine heart.
Broadly, the EC50 is the midpoint of the concentration-response curve. Read a low EC50 as higher potency in that assay. Molecule `C[N+](C)(CCCCCC[N+](C)(C)CCCN1C(=O)CC2c3ccccc3C(C1=O)c1ccccc12)CCCN1C(=O)c2ccccc2C1=O` had an EC50 of 0.398 µM.
The molecule `CCCCCC[N+](C)(C)CCCN1C(=O)c2ccccc2C1=O` showed an EC50 of 54 µM.
Regarding `C[N+](C)(CCCCCC[N+](C)(C)CCCN1C(=O)c2cc3ccccc3cc2C1=O)CCCN1C(=O)c2ccccc2C1=O`, the EC50 was 0.148 µM.
As to `C[N+](C)(CCCCCCO)CCCN1C(=O)c2ccccc2C1=O`, the concentration giving a half-maximal response (EC50) was 24 µM.
Same read-out and setting: the result for `C[N+](C)(CCCCCCC[N+](C)(C)CCCN1C(=O)c2ccccc2C1=O)CCCN1C(=O)c2ccccc2C1=O` reads 0.389 µM; that for `C[C@@H]1C(=O)N(CCC[N+](C)(C)CCCCCCC[N+](C)(C)CCCN2C(=O)[C@H](C)[C@@H](C)C2=O)C(=O)[C@H]1C`, 12.1 µM.
For the molecule `C[N+](C)(CCCCCCC[N+](C)(C)CCCN1C(=O)[C@H]2CCCC[C@H]2C1=O)CCCN1C(=O)[C@H]2CCCC[C@H]2C1=O`, the EC50 is 4.5 µM.
`C[N+](C)(CCCCCCC[N+](C)(C)CCCN1C(=O)[C@@H]2CCCC[C@H]2C1=O)CCCN1C(=O)[C@H]2CCCC[C@@H]2C1=O` showed an EC50 of 0.8 µM.
As to `C[N+](C)(CCCCCC[N+](C)(C)CCCN1C(=O)c2cccnc2C1=O)CCCN1C(=O)c2ccccc2C1=O`, the EC50 is 2.34 µM.
On to `CCOC(=O)CCCCCC[N+](C)(C)CCCN1C(=O)c2ccccc2C1=O`, for which the EC50 is 111 µM.
The molecule `COc1ccc(CCN(C)CCCC(C#N)(c2ccc(OC)c(OC)c2)C(C)C)cc1OC` (stereo not given) showed an EC50 of 31 µM.
On to `C[N+](C)(CCCCCCC[N+](C)(C)CCCN1C(=O)CCC1=O)CCCN1C(=O)CCC1=O`, for which the EC50 is 151 µM.
`O=C1c2ccccc2C(=O)N1CCCN(CCCCCCN(CCCc1ccccc1)CCCN1C(=O)c2ccccc2C1=O)CCCc1ccccc1` gave an EC50 of 0.991 µM.
As for `CC1CC(=O)N(CCC[N+](C)(C)CCCCCCC[N+](C)(C)CCCN2C(=O)CC(C)C2=O)C1=O` (stereo not given), the EC50 is 32 µM.

The next test deals with T2, Corticosteroid-binding globulin (Homo sapiens) (UniProt P08185).
T2 sequence (whole entry): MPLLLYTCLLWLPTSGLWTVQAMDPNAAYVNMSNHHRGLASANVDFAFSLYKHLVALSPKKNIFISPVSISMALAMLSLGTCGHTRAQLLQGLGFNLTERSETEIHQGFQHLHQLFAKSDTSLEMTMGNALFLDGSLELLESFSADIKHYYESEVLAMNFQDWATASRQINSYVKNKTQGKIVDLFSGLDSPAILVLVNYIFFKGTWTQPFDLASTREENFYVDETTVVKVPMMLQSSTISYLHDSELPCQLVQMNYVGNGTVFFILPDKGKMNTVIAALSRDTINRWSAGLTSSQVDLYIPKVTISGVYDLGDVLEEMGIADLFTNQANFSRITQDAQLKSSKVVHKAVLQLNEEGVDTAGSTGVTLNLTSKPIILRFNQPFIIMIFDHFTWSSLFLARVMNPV
Description: Binding affinity towards corticosteroid binding globulin (CBG)
`C[C@]12CCC(=O)C=C1CC[C@@H]1[C@@H]2[C@@H](O)C[C@]2(C=O)[C@@H](C(=O)CO)CC[C@@H]12`: the Log K was 6.28.
